Tested on: HCV NS3
Test: Quantitative Western blot of HCV NS3 in replicon cells
Type: cell-based
Protocol: Certain exemplary synergistic combinations of the invention can also be tested for their ability to inhibit HCV replication using a quantitative Western blot analysis with antibodies specific for the HCV nonstructural protein NS3. Actively dividing 9-13 replicon cells can be seeded into 6-well plates at a density of 1×10^5 cells/well in a volume of 2 ml/well and can be incubated at 37° C. and 5% CO2 for 24 hours. Various concentrations of test compounds (in a volume of 10 ul) were can be added to the wells and the cells can be incubated for another 48 hours. Protein samples can be prepared from the cultured cells, then could be resolved on a SDS-PAGE gel and then could be transferred to a nitrocellulose membrane. The membrane can be blocked with 5% non-fat milk in PBS for 1 hour at room temperature. Primary antibody (anti NS3 antibody; Rigel Pharmaceuticals, South San Francisco, Calif.) incubation can be performed for 1 hour at room temperature, after which the membrane can be washed 3 times (for 15 min per time) with PBST (PBS plus 0.1% Tween 20). Horseradish peroxidase conjugated secondary antibody incubation can be performed for 1 hour at room temperature and the membrane can be washed 3 times (for 15 min per time) with PBST. The membrane can then be soaked in substrate solution (Pierce) and can then be exposed to a film or quantified using an imager. In this assay, the amount of test synergetic combination that yields a 50% reduction in the amount of NS3 protein translated as compared to a control sample (IC50) can be determined.

Molecule: O=C(Nc1ccnc(-c2cc(-c3c(Cl)cccc3Cl)no2)c1)C(Cl)Cl [compound I]
- HCV NS3 protein level (FIG. 2, 100 nM of compound I and 20 μm ribavirin): eliminated
- synergy between compound I and ribavirin (FIG. 2, ribavirin at constant concentration, concentration of compound I varied): synergy
- synergistic effects on HCV replication (FIG. 3, compound I, interferon-α and ribavirin): synergistic effects
- HCV NS3 (FIGS. 3(c) and 3(d), increasing concentrations of compound I in combination with interferon-α and ribavirin): effectively eliminates

Molecule: interferon-α
- effectiveness against HCV replication, as indicated by the reduction of HCV NS3 in replicon cells (FIG. 3(a), interferon-α alone at elevated concentrations): effective
